This is an account of results in US20230416262A1, “TRPML MODULATORS” (Casma Therapeutics, Inc., priority 2020, published 2023).

Test [1] relates to TFEB. Kind of test: TFEB nuclear translocation assay. The class given is cell-based. The conditions noted are these: Homo sapiens; HeLa wt or HeLa TRPML1 KO cells, treated for 2 hrs; ratio of nuclear to ring-region TFEB intensity. Summed up: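 HeLa wild-type or TRPML1 KO cells treated 2 h with compound at 37 °C, PFA-fixed, immunostained for TFEB (Alexa 488) with Hoechst nuclei. Imaged at ×20, four fields/well. Value is ratio of nuclear to perinuclear-ring TFEB intensity, with nuclei counts.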

For test [2], the system named is THP-1 cells. As to the kind of experiment: Lamp1 lysosomal exocytosis assay. The class given is cell-based. To be noted: Homo sapiens, 55 min, 55 min incubation, top dose 20 μM. An outline of the steps: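 THP-1 cells (1e5/well) exposed to a 7-point 3-fold compound series, top final 20 μM, for 55 min at 37°C. Surface Lamp1 then stained with Lamp1-PE on ice in buffer containing 80 μM Dynasore, and read by flow cytometry as PE geometric mean on live, sytox-negative singlets.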

Molecules are shown by their SMILES. pEC50: −log10 of the molar value. Where only a bound is given, the exact number is not on record here.

As usually defined, the pEC50 is −log10 of the EC50, conventionally taken in molar units. For the compound `CC1(C)Cc2cc(S(=O)(=O)N3CC4(CCCC4)c4ccccc43)ccc2O1` [Compound I-2, 1′-[(2,2-dimethyl-2,3-dihydro-1-benzofuran-5-yl)sulfonyl]-1′,2′-dihydrospiro[cyclopentane-1,3′-indole]], the pEC50 is 5.10 to 5.70 in test [1] and no more than 5.30 in test [2].
For `CC1(C)COc2ccc(S(=O)(=O)N3CC4(CCCC4)c4ccccc43)cc21` [Compound I-5, 1′-[(3,3-dimethyl-2,3-dihydro-1-benzofuran-5-yl)sulfonyl]-1′,2′-dihydrospiro[cyclopentane-1,3′-indole]] the same measures were no less than 5.70 and no more than 5.30.
In the case of `O=S(=O)(c1ccc(OC(F)(F)F)cc1)N1CC2(CCCC2)c2ccccc21` [Compound I-31, 1′-[4-(trifluoromethoxy)benzenesulfonyl]-1′,2′-dihydrospiro[cyclopentane-1,3′-indole]], the pEC50 in test [1] was 5.10 to 5.70; in test [2] it was no more than 5.30.
With `O=S(=O)(c1ccc2c(c1)CCC(C(F)F)O2)N1CC2(CCCC2)c2ccccc21` (stereo not shown) [Compound I-35, 1′-{[2-(difluoromethyl)-3,4-dihydro-2H-1-benzopyran-6-yl]sulfonyl}-1′,2′-dihydrospiro[cyclopentane-1,3′-indole]], the pEC50 in test [1] is 5.10 to 5.70; in test [2] it was no more than 5.30.
With `O=S(=O)(c1ccc(C2CC2(F)F)cc1)N1CC2(CCCC2)c2ccccc21` (stereo not shown) [Compound I-48, 1′-[4-(2,2-difluorocyclopropyl)benzenesulfonyl]-1′,2′-dihydrospiro[cyclopentane-1,3′-indole]], the values for the pEC50 in test [1] and in test [2] were 5.10 to 5.70 and no more than 5.30, respectively.
For `CC1(C)Oc2ccc(S(=O)(=O)N3CC4(CCCC4)c4ccccc43)cc2O1` [Compound I-57, 1′-[(2,2-dimethyl-2H-1,3-benzodioxol-5-yl)sulfony1]-1′,2′-dihydrospiro[cyclopentane-1,3′-indole]], the pEC50 in test [1] was 5.10 to 5.70; in test [2], no more than 5.30.
In the case of `O=S(=O)(c1ccc2c(c1)CCC2)N1CC2(CCCC2)c2ccccc21` [Compound I-67, 1′-((2,3-dihydro-1H-inden-5-yl)sulfonyl)spiro[cyclopentane-1,3′-indoline]], the pEC50 in test [1] was 5.10 to 5.70; in test [2], no more than 5.30.
Regarding `CN(C)S(=O)(=O)c1ccc(S(=O)(=O)N2CC3(CCCC3)c3ccccc32)cc1` [Compound I-68, 4-({1′,2′-dihydrospiro[cyclopentane-1,3′-indol]-1′-yl}sulfonyl)-N,N-dimethylbenzene-1-sulfonamide], the results for the pEC50 in test [1] and in test [2] were no less than 5.70 and no less than 6.30, respectively.
For `CN(C)S(=O)(=O)c1ccc(S(=O)(=O)N2CC3(CCN(C(=O)C(C)(C)C)C3)c3ccccc32)cc1` (stereo not shown) [Compound I-73, 4-{[1′-(2,2-dimethylpropanoyl)-1,2-dihydrospiro[indole-3,3′-pyrrolidin]-1-yl]sulfonyl}-N,N-dimethylbenzene-1-sulfonamide] the same measures were 5.10 to 5.70 and no more than 5.30.
Take `Cc1cccc(S(=O)(=O)N2CC3(CCCC3)c3ccccc32)c1` [Compound I-74, 1′-(3-methylbenzenesulfonyl)-1′,2′-dihydrospiro[cyclopentane-1,3′-indole]]: the figures for the pEC50 in test [1] and in test [2] were 5.10 to 5.70 and no more than 5.30, respectively.
Take `Cc1ccc2c(c1)N(S(=O)(=O)c1ccc(S(=O)(=O)N(C)C)cc1)CC21CCCC1` [Compound I-79, N,N-dimethyl-4-((6′-methylspiro[cyclopentane-1,3′-indolin]-1′-yl)sulfonyl)benzenesulfonamide]: the negative logarithm of the EC50 (pEC50) in test [1] was no less than 5.70; in test [2], no less than 6.30.
On to `O=C(OCc1ccccc1)N1CCC2(CC1)CN(S(=O)(=O)Cc1ccccc1)c1ccccc12` [Compound I-80, benzyl 1-(benzylsulfonyl)spiro[indoline-3,4′-piperidine]-1′-carboxylate], for which the pEC50 in test [1] was no less than 5.70; in test [2], no more than 5.30.
Consider `O=C(OCc1ccccc1)N1CCC2(CC1)CN(S(=O)(=O)c1ccc(C(F)F)cc1)c1ccccc12` [Compound I-81], for which the pEC50 in test [1] was no less than 5.70; in test [2], no less than 6.30.
As to `CN1CCC2(CC1)CN(S(=O)(=O)c1ccc(C(F)F)cc1)c1ccccc12` [Compound I-83], the pEC50 in test [1] is no more than 5.00; in test [2], no more than 5.30.
Take `O=S(=O)(c1ccc(C(F)F)cc1)N1CC2(CCN(CC(F)(F)F)CC2)c2ccccc21` [Compound I-86, 1-[4-(difluoromethyl)benzenesulfonyl]-1′-(2,2,2-trifluoroethyl)-1,2-dihydrospiro[indole-3,4′-piperidine]]: the pEC50 in test [1] is no less than 5.70; in test [2], no more than 5.30.
On to `CN(C)S(=O)(=O)c1ccc(S(=O)(=O)N2CC3(CCN(CC(F)(F)F)CC3)c3ccccc32)cc1` [Compound I-87, N,N-dimethyl-4-{[1′-(2,2,2-trifluoroethyl)-1,2-dihydrospiro[indole-3,4′-piperidin]-1-yl]sulfonyl}benzene-1-sulfonamide], for which the values for the pEC50 in test [1] and in test [2] were no less than 5.70 and 6.00 to 6.29, respectively.
On the same counts, the results for `O=C(OCc1ccccc1)N1CCC2(C1)CN(S(=O)(=O)c1ccc(C(F)F)cc1)c1ccccc12` (stereo not shown) [Compound I-91, benzyl 1-[4-(difluoromethyl)benzenesulfonyl]-1,2-dihydrospiro[indole-3,3′-pyrrolidine]-1′-carboxylate] are 5.10 to 5.70 and no more than 5.30.
On the same counts, the results for `O=S(=O)(c1ccc(C(F)F)cc1)N1CC2(CCN(CC(F)(F)F)C2)c2ccccc21` (stereo not shown) [Compound I-92, 1-[4-(difluoromethyl)benzenesulfonyl]-1′-(2,2,2-trifluoroethyl)-1,2-dihydrospiro[indole-3,3′-pyrrolidine]] are 5.10 to 5.70 and no more than 5.30.
Regarding `CC1(C)COc2ccc(S(=O)(=O)N3CC4(CCCCC4)c4ccccc43)cc21` [Compound I-94, 1′-[(3,3-dimethyl-2,3-dihydro-1-benzofuran-5-yl)sulfonyl]-1′,2′-dihydrospiro[cyclohexane-1,3′-indole]], the results for the pEC50 in test [1] and in test [2] were no less than 5.70 and no more than 5.30, respectively.
For `CN(C)S(=O)(=O)c1ccc(S(=O)(=O)N2CC3(CCCC3)c3c(F)cccc32)cc1` [Compound I-95, 4-({4′-fluoro-1′,2′-dihydrospiro[cyclopentane-1,3′-indol]-1′-yl}sulfonyl)-N,N-dimethylbenzene-1-sulfonamide], the pEC50 in test [1] was no less than 5.70; in test [2] it was no less than 6.30.
Consider `CN(C)S(=O)(=O)c1ccc(S(=O)(=O)N2CC3(CCN(CC(C)(F)F)CC3)c3ccccc32)cc1` [Compound I-97, 4-{[1′-(2,2-difluoropropyl)-1,2-dihydrospiro[indole-3,4′-piperidin]-1-yl]sulfonyl}-N,N-dimethylbenzene-1-sulfonamide], for which the pEC50 was no less than 5.70 in test [1] and 6.00 to 6.29 in test [2].
As for `CN(C)S(=O)(=O)c1ccc(S(=O)(=O)N2CC3(CCN(CC4CCOCC4)CC3)c3ccccc32)cc1` [Compound I-98, N,N-dimethyl-4-({1′-[(oxan-4-yl)methyl]-1,2-dihydrospiro[indole-3,4′-piperidin]-1-yl}sulfonyl)benzene-1-sulfonamide], the pEC50 in test [1] was no less than 5.70; in test [2], 5.30 to 6.00.
For `CN(C)S(=O)(=O)c1ccc(S(=O)(=O)N2CC3(CCCCC3)c3ccccc32)cc1` [Compound I-99, 4-({1′,2′-dihydrospiro[cyclohexane-1,3′-indol]-1′-yl}sulfonyl)-N,N-dimethylbenzene-1-sulfonamide] the same measures were no less than 5.70 and no less than 6.30.
In the case of `CC1(C)COc2ccc(S(=O)(=O)N3CC4(CCCC4)c4c(F)cccc43)cc21` [Compound I-100, 1′-[(3,3-dimethyl-2,3-dihydro-1-benzofuran-5-yl)sulfonyl]-4′-fluoro-1′,2′-dihydrospiro[cyclopentane-1,3′-indole]], the pEC50 in test [1] is no less than 5.70; in test [2], no more than 5.30.
With `CN(C)S(=O)(=O)c1ccc(S(=O)(=O)N2CC3(CN(CC4CCOCC4)C3)c3ccccc32)cc1` [Compound I-101, N,N-dimethyl-4-({1-[(oxan-4-yl)methyl]-1′,2′-dihydrospiro[azetidine-3,3′-indol]-1′-yl}sulfonyl)benzene-1-sulfonamide], the pEC50 is 5.10 to 5.70 in test [1] and no more than 5.30 in test [2].
On the same counts, the results for `CN(C)S(=O)(=O)c1ccc(S(=O)(=O)N2CC3(CCN(C4CCOC4)CC3)c3ccccc32)cc1` (stereo not shown) [Compound I-103, N,N-dimethyl-4-{[1′-(oxolan-3-yl)-1,2-dihydrospiro[indole-3,4′-piperidin]-1-yl]sulfonyl}benzene-1-sulfonamide] are 5.10 to 5.70 and no more than 5.30.
For `CN(C)S(=O)(=O)c1ccc(S(=O)(=O)N2CC3(CCN(C(=O)OCc4ccccc4)CC3)c3ccccc32)cc1` [Compound I-104], the figures for the pEC50 in test [1] and in test [2] were no less than 5.70 and no less than 6.30, respectively.
Regarding `CN(C)S(=O)(=O)c1ccc(S(=O)(=O)N2CC3(CN(C(=O)OCc4ccccc4)C3)c3ccccc32)cc1` [Compound I-105, benzyl 1′-[4-(dimethylsulfamoyl)benzenesulfonyl]-1′,2′-dihydrospiro[azetidine-3,3′-indole]-1-carboxylate], the pEC50 was no less than 5.70 in test [1] and no more than 5.30 in test [2].
With `O=C(CC1CCOC1)N1CCC2(CC1)CN(S(=O)(=O)c1ccc(C(F)F)cc1)c1ccccc12` (stereo not shown) [Compound I-255, 1-(1-((4-(difluoromethyl)phenyl)sulfonyl)spiro[indoline-3,4′-piperidin]-1′-yl)-2-(tetrahydrofuran-3-yl)ethan-1-one], the pEC50 in test [2] was no more than 5.30.
In test [2], `O=C(CC1CCCO1)N1CCC2(CC1)CN(S(=O)(=O)c1ccc(C(F)F)cc1)c1ccccc12` (stereo not shown) [Compound I-256, 1-(1-((4-(difluoromethyl)phenyl)sulfonyl)spiro[indoline-3,4′-piperidin]-1′-y1)-2-(tetrahydrofuran-2-yl)ethan-1-one] gave a pEC50 of no more than 5.30.
